From paper PMC9697025, “Discovery of N-Containing (-)-Borneol Esters as Respiratory Syncytial Virus Fusion Inhibitors” (Pharmaceuticals, 2022)
Where two headings read alike, the source gives them in different places. Marks after values point to notes of the source that are not given here.

Columns and labels:
[1] = test system: RSV A strain A2; test: In vitro antiviral assay against RSV A strain A2 in HEp-2 cells (ELISA, virus titer); assay type: cell-based, respiratory syncytial virus; details: for IC50: RSV A strain A2 in HEp-2 cells, mean ± SD
[2] = in vitro; details: human
[3] = test system: pSARS-CoV-2-S; parameters: method as in PMID 35746766; details: CC50/IC50pSARS-CoV-2-S, pseudovirus ref 14; cited from earlier work
[4] = test system: Vaccinia virus; details: CC50/IC50VACV ref 16; cited from earlier work
[5] = MTT cytotoxicity assay with non-infected HEp2 cells; details: human
[6] = test system: rVSV-ΔG-MarV-GP; details: CC50/IC50MarV-GP, HEK293T cells ref 12,13; cited from earlier work
[7] = test system: rVSV-ΔG-EboV-GP; details: CC50/IC50EboV-GP, HEK293T cells ref 12,13; cited from earlier work
[8] = test system: A/Puerto Rico/8/34 (H1N1) virus; parameters: method as in PMID 30108810; details: CC50/IC50H1N1, A/Puerto Rico/8/34 (H1N1) ref 15; cited from earlier work
[9] = test system: SARS-CoV-2; parameters: method as in PMID 35746766; details: CC50/IC50SARS-CoV-2, against various SARS-CoV-2 virus strains ref 14; cited from earlier work
[10] = test system: RSV; test: Temperature shift assay (virus attachment at 4 °C vs post-binding); details: unbound virus washed away, compound added before shift to 37 °C
[11] = test system: RSV A strain
[12] = human respiratory syncytial virus, HEp-2, 50% decrease in virus replication

NC(=O)c1ncn([C@@H]2O[C@H](CO)[C@@H](O)[C@H]2O)n1 [Ribavirin, reference compound]
SI [1]: 50 | IC50 ([1]; 50% decrease in virus replication): 80.1 ± 13.5 µM | IC50 [1, 12]: 80 µM | CC50 at 24 h [2]: < 4000 µM

CC1(C)[C@H]2CC[C@]1(C)[C@H](OC(=O)CCN1CCOCC1)C2 [Compound 5b]
SIpSARS-CoV-2-S [3]: ^e SIpSARS-CoV-2-S = 18 | SIVACV [4]: ^d SIVACV = 48 | SI [1]: 15 | IC50 [1, 12]: 8.5 ± 2.8 µM | CC50 at 24 h [5]: 127 ± 15.2 µM | SIMarV-GP [6]: ^a SIMarV-GP = 5 | SIEboV-GP [7]: ^b SIEboV-GP = 36 | SIH1N1 [8]: ^c SIH1N1 = 45

CC1(C)[C@H]2CC[C@]1(C)[C@H](OC(=O)CCN1CCN(c3ccccc3)CC1)C2 [Compound 14b, (1S,2R,4S)-1,7,7-Trimethylbicyclo [2.2.1]heptan-2-yl 3-(4-phenylpiperazin-1-yl)propanoate]
melting point: 83 °C | IC50 [1, 12]: 8.1 ± 0.9 µM | SI ([1]; selectivity index, CC50/IC50 ratio, RSV A2 / HEp-2): 45 | CC50 at 24 h [5]: 366 ± 25.8 µM

CCCCN(CCCC)CCC(=O)OC1CC2CCC1(C)C2(C)C (stereo not drawn) [IV (n=2)]
SIpSARS-CoV-2-S [3]: ^e SIpSARS-CoV-2-S = 29 | SISARS-CoV-2 [9]: SISARS-CoV-2 = 6–102 * | SIMarV-GP [6]: ^a SIMarV-GP = 15 | SIH1N1 [8]: ^c SIH1N1 = 12

CC1(C)[C@H]2CC[C@]1(C)[C@H](OC(=O)CN1CCOCC1)C2 [Compound 5a]
SIpSARS-CoV-2-S [3]: ^e SIpSARS-CoV-2-S = 5 | anti-RSV activity, temperature shift conditions (B) [10]: antiviral activity was maintained | SIVACV [4]: ^d SIVACV = 56 | SI [1]: 83 | IC50 [1, 12]: 5 ± 1 µM | effect on viral titer, time-of-addition ([11]; compound added at 1 h post infection): significant reduction in viral titer | inhibitory activity, time-of-addition ([11]; compound added at later time points (after 2 h post infection)): lost their inhibitory activity | time of addition up to which antiviral activity was maintained ([11]; post infection): up to 2 h | CC50 at 24 h [5]: 413 ± 35.1 µM | SIMarV-GP [6]: ^a SIMarV-GP = 5 | SIEboV-GP [7]: ^b SIEboV-GP = 13 | SIH1N1 [8]: ^c SIH1N1 = 82

CCCCN(CCCC)CC(=O)OC1CC2CCC1(C)C2(C)C (stereo not drawn) [IV (n=1)]
SIpSARS-CoV-2-S [3]: ^e SIpSARS-CoV-2-S = 10 | SISARS-CoV-2 [9]: SISARS-CoV-2 = 11–40 * | SIMarV-GP [6]: ^a SIMarV-GP = 6 | SIH1N1 [8]: ^c SIH1N1 = 16
